Test [1] concerns alpha-1 type I collagen (COL1A1) mRNA in primary murine skin fibroblasts. Briefly: COL1A1 mRNA quantification by RT-PCR. In kind it is cell-based, mouse. The following applies: P12-3A 100 μM, 4 d, confluent monolayers. As for the experimental part:
(§1) FIG. 4A-F. Effects of P12-3A on cultured skin cells. A, Insulin concentrations as a function of time in logarithmically growing primary murine skin fibroblasts in the absence or presence of P12-3A (100 μM). […] Data are mean±SEM of 4 independent replications. *P<0.05, **P<0.01. B, Proliferation of cells in the absence or presence of P12-3A (100 μM). […] C,D,E, P12-3A (100 μM) potentiates insulin-induced collagen production in skin fibroblasts. Collagen production was assessed by COL1A1 mRNA levels (C), levels of hydroxyproline secreted into the medium (D), and cell-associated mature alpha-1 type I collagen levels detected by Western blotting (E). […] Migration of HaCaT cells 48 h after induction of a scratch wound in the presence of the indicated quantities of insulin and/or P12-3A (100 μM). […]
(§2) Insulin promotes wound healing and overall skin health by affecting a number of processes, including cell proliferation (2,3), cell migration (5,6), and the production and secretion of ECM components, particularly type I collagen (7-13). We therefore assessed the ability of P12-3A to influence these processes in cultured skin fibroblasts and keratinocytes. To that end, primary mouse skin fibroblasts were grown for 4 d in multiple concentrations of insulin in the presence or absence of P12-3A, and insulin concentration over time was monitored by ELISA. […]

For test [2], the system named is primary murine skin fibroblasts. Briefly: Western blotting of cell-associated mature alpha-1 type I collagen. It is filed as cell-based, mouse. The conditions noted are these: P12-3A 100 μM. As for the experimental part: as §1, §2
The test system is the same in test [3]. Put plainly: Insulin degradation in cultured skin fibroblasts, insulin in medium by ELISA. In kind it is cell-based, mouse. The following applies: 100 μM P12-3A, 10 nM insulin, up to day 4, logarithmically growing cells. As for the experimental part: as §1, §2
Test [4] has the same test system. Put plainly: Hydroxyproline secreted into the medium (collagen production and secretion). In kind it is cell-based, mouse. The conditions noted are these: P12-3A 100 μM. As for the experimental part:
as §1, §2

Test [5] has as its system HaCaT cells. Briefly: In vitro scratch wound assay, keratinocyte migration. In kind it is cell-based. The following applies: P12-3A 100 μM, 48 h after scratch wound, different concentrations of insulin. As for the experimental part:
as §1, §2

Entries after “also recorded” stand apart in the source; their conditions may differ. Where a SMILES comes first, the peptide text is derived from it. Bridges are numbered along the chain shown (N, C = ends).

Turning to `CC(C)C[C@H](NC(=O)[C@H](CO)NC(=O)[C@@H](N)CCC(N)=O)C(=O)N1CCC[C@H]1C(=O)N[C@@H](Cc1c[nH]c2ccccc12)C(=O)N[C@H]1CSSC[C@@H](C(=O)N[C@H](C(=O)N[C@H](C(N)=O)[C@@H](C)O)C(C)C)NC(=O)[C@H](Cc2c[nH]cn2)NC(=O)[C@@H]2CCCN2C(=O)[C@H](Cc2ccc(O)cc2)NC1=O` [Peptide P12-3A] (H-QSLPWCYPHCVT-NH2; disulfide 6-10 (inferred)), in test [1], the “COL1A1 mRNA levels” value was ~2.6 times the levels of untreated cells. In addition, in test [2], the “mature, cell-associated collagen levels” value was “increased”. Moreover, the “insulin levels over time in cell culture” value in test [3] is “remain constant”. For the same compound, the “hydroxyproline levels secreted into the medium” value in test [4] is ~4.6 times that secreted by untreated cells. Further, the migration of keratinocytes result in test [5] is “significantly increase; also recorded: potentiates the migration of keratinocytes”.

The values are drawn from patent US11555055B2, “Peptide inhibitors of insulin-degrading enzyme” (The Regents of the University of California, priority 2017, dated 2023).
